Measured values: US20240115554A1, “METHODS FOR TREATING OBSTRUCTIVE HYPERTROPHIC CARDIOMYOPATHY” (Cytokinetics, Incorporated, priority 2022, published 2024)
Several values for one entry are separate records, joined by “and”; a condition that tells them apart may be missing. Equal values may be shown once.

Key:
[1] = tested on: healthy adults; assay: Phase 1 echocardiography pharmacodynamics (LVEF); format: in vivo, human
Method: Echocardiography. For PD assessments of LVEF, echocardiograms for the SAD and MAD cohorts were interpreted by the echocardiography core laboratory and used for all data analysis and dose level review decisions while immediate local interpretation of the echocardiograms was performed for safety monitoring. […] Echocardiograms on day 3 (48 h after dosing) were obtained only if the 24 h LVEF had not returned to near or above baseline, as determined by the investigator. In the MAD cohorts, echocardiograms were obtained on day −1, pre-dose on day 1, and at 1.5 h post dose on days 2, 4, and 9, and at 1.5, 24, and 72 h post dose on day 14 (for the 5-mg and 10-mg cohorts) or on day 17 (for the 7.5-mg cohort). Echocardiograms were obtained 3 days after the last dose (on day 17 or 20) only if the participant's prior LVEF was not near or above baseline, as determined by the investigator. […] Descriptive statistics of the echocardiographic parameters were generated using SAS® Version 9.3 or higher. Dose-response analysis was performed using analysis of covariance (ANCOVA) to identify the least-squares mean difference (aficamten minus placebo). To analyze the impact of drug dose on echocardiographic parameters in the SAD and MAD cohorts, an inferential analysis was conducted on the PD analysis set using linear mixed models for repeated-measures analysis of covariance (ANCOVA). The ANCOVA used baseline value as a covariate, included treatment, time-point, and time-point-by-treatment interaction as fixed effects, and change from baseline as the dependent variable. The unstructured variance-covariance structure was used, and the model accounted for the time-point repeated measures. The ANCOVA analysis was conducted separately for each study part and for each PD parameter. The least-squares means, the difference in least squares means (active minus placebo), and the associated 2-sided 95% CIs were presented for each comparison. Analyses of concentration ‘bin’ and exposure-response were also performed using ANCOVA. SAS® PROC MIXED was used for all comparative analyses. […] A concentration bin ANCOVA was conducted using linear mixed models for repeated-measures analyses with concentration bin group as a fixed effect, baseline PD parameters as a covariate, change from baseline as the dependent variable, and a random intercept to adjust for the repeated measures. The unstructured variance-covariance structure was used. […] The ANCOVA compared the change in PD parameters between each bin versus the pooled placebo group. The least-squares means, the difference in least squares means (bin group minus placebo), and the associated 2-sided 95% CIs were presented for each comparison. The ANCOVA analysis was conducted separately for each study part. For all time-points at which both PK data and PD measures were available, the time-points were pooled for the analysis. […] From least to greatest, the data were then divided into 5 groups of observations (‘bins’), each consisting of 20% of the data points. Each bin was treated as a separate group. […] The above analysis was then repeated using concentration as a continuous variable to estimate the exposure-response trend. Both a random intercept effect and a random concentration effect were added to the ANCOVA. The estimate of the concentration slope, with corresponding 2-sided 95% CIs, and the ANCOVA analyses were presented for each study part.

[2] = tested on: patients with symptomatic obstructive HCM (oHCM); assay: Phase 2 trial: echocardiography (LVOT-G, LVEF, cardiac remodeling); format: in vivo, human; conditions: for patients achieving resting gradient <30 mmHg and post-Valsalva gradient <50 mmHg at Week 10 (complete hemodynamic response): n=14
Excerpt: Cohort 3 included patients receiving disopyramide.
Since patient characteristics vary substantially in this disease, individualized dose titration to a pharmacodynamics (PD) response (reduction of the LVOT-G to <30 mmHg with preservation of LVEF >50%) was employed to maximize efficacy and safety.
Patients up-titrated to Dose 2 if either of the following conditions were met on echocardiography: (1) resting LVOT-G ≥30 mmHg and the biplane LVEF ≥50%; or (2) resting LVOT-G <30 mmHg, post-Valsalva LVOT-G ≥50 mmHg, and the biplane LVEF ≥50%. Otherwise, the patient remains on Dose 1. If LVEF is <50% at Week 2, the patient was down-titrated to placebo.
Patients were escalated to the next higher dose if either of the following conditions were met on echocardiography: (1) resting LVOT-G ≥30 mmHg and the biplane LVEF ≥50%; or (2) resting LVOT-G <30 mmHg, post-Valsalva LVOT-G ≥50 mmHg, and the biplane LVEF ≥50%. Otherwise, the patient remained on the same dose. If LVEF was <50% at Week 4, the patient was returned to a prior dose level or to placebo if the patient was on Dose 1.
Echocardiograms obtained every 2 weeks and 2 weeks after the last dose were analyzed for several key structural and physiologic metrics and N-terminal prohormone of brain natriuretic peptide (NT-proBNP).
Overall, treatment duration for each patient in the study was 10 weeks with an echocardiogram conducted 2 weeks after the last dose.
Secondary results from the clinical study included data from Cohort 3 (n=13). […] Overall, treatment duration for each patient in the study was 10 weeks with an echocardiogram conducted 2 weeks after the last dose. Efficacy endpoints included resting and provoked LVOT gradients, NYHA class, and NT-proBNP.

[3] = SAD 50 mg (n = 11), change from baseline at […]
[4] = Cohort 3 (with disopyramide), n=13
[5] = baseline to week 10, pooled aficamten

SMILES: CCc1nc(-c2ccc3c(c2)CC[C@H]3NC(=O)c2cnn(C)c2)no1 [aficamten, (R)—N-(5-(5-ethyl-1,2,4-oxadiazol-3-yl)-2,3-dihydro-1H-inden-1-yl)-1-methyl-1H-pyrazole-4-carboxamide]
- plasma aficamten concentration with minimal suppression of LVEF in most participants ([1]; MAD cohorts): < 180 ng/mL
- time within which LVEF returned to baseline in participants whose LVEF fell below 50% ([1]; Phase 1): ≤ 24 h
- E, Mean ([1]; SAD 50 mg (n = 11), […]): 64 cm/s
- A, CFB Mean [1, 3]: 2.5 cm/s
- E, CFB Mean [1, 3]: -2.7 cm/s
- Heart rate, CFB Mean [1, 3]: 0.5 bpm
- IVCT, CFB Mean [1, 3]: 0.4 ms
- IVRT, CFB Mean [1, 3]: 0.5 ms
- LAV, CFB Mean [1, 3]: 0 mL
- LV EDV, CFB Mean [1, 3]: 6.6 mL
- LV ESV, CFB Mean [1, 3]: 8.1 mL
- LV ET, CFB Mean [1, 3]: 1.9 ms
- LV SV, CFB Mean [1, 3]: -6.2 mL
- LVEF, CFB Mean [1, 3]: −5.8%
- e′ lateral, CFB Mean [1, 3]: -1.3 cm/s
- participants with absolute reduction in LVEF of ≥5% from baseline ([1]; SAD 1-, 10-, or 25-mg cohorts): no participants
- participants with reduction in LVEF to <50% ([1]; SAD 50-mg cohort (2 of 11)): 18%
- LVEF of the participants with LVEF <50% ([1]; SAD 50-mg cohort, 2 participants, core laboratory assessment): 48.2% and 45.5%
- mean maximum reduction in LVEF ([1]; SAD 50-mg group, […] post dose): 5.8%
- participants with reduction in LVEF to <50% ([1]; SAD 75-mg cohort (1 of 1)): 100%
- relationship of plasma concentration to change in LVEF ([1]; SAD cohorts): trend toward a decrease in LVEF
- participants with LVEF <45% ([1]; SAD cohorts, core laboratory): Only the participant in the 75-mg cohort experienced LVEF <45%
- reduction in LVEF to <50% ([1]; any of the MAD cohorts, core laboratory assessment): not observed
- decrease in mean LVEF from baseline (least-squares mean difference) ([1]; single 50-mg dose, […] post dose): 5.5%
- LVEF after reduction ([1]; single dose of 75 mg, 1 participant, approximately […] after dosing): 34.1%
- reduction in LVEF ([1]; single participant, 75 mg, […] post dose): 31.5%
- patients achieving resting gradient <30 mmHg and post-Valsalva gradient <50 mmHg at Week 10 (complete hemodynamic response) ([2]; Cohort 1 (5, 10, 15 mg)): 78.6% and 79%
- average resting LVOT-G at 10 weeks ([2]; Cohort 1 (n=14), 53.8 mmHg at baseline): 13.4 mmHg
- average Valsalva LVOT-G at 10 weeks ([2]; Cohort 1 (n=14), 77.4 mmHg at baseline): 38.1 mmHg
- average ejection fraction at 10 weeks ([2]; Cohort 1 (n=14), baseline 72.8% (73±6%)): 67.3% and 67±9%
- patients achieving resting gradient <30 mmHg and post-Valsalva gradient <50 mmHg at Week 10 (complete hemodynamic response) ([2]; Cohort 2 (10, 20, 30 mg)): 92.9% and 93%
- average resting LVOT-G at 10 weeks ([2]; Cohort 2 (n=14), 58.2 mmHg at baseline): 15.1 mmHg
- average Valsalva LVOT-G at 10 weeks ([2]; Cohort 2 (n=14), 82.3 mmHg at baseline): 29.8 mmHg
- average ejection fraction at 10 weeks ([2]; Cohort 2 (n=14), baseline 75.4% (75±6%)): 64.1% and 64±8%
- patients with complete or partial response in LVOT gradients at end of treatment ([2]; Cohort 3 (Ten of 13)): 77%
- patients with temporary complete or partial response during the treatment period ([2]; Cohort 3 (Three patients)): 23%
- mean (SD) reduction of resting LVOT-G at Week 10 [2, 4]: 27 mmHg
- mean reduction of Valsalva LVOT-G at Week 10 [2, 4]: 28 mmHg
- mean LVEF at end of 10-week treatment ([2]; Cohort 3 (with disopyramide), baseline 74±7.5%): 69±7.2%
- dose dependence of reductions in LVOT-G ([2]; Cohorts 1 and 2): dose dependent
- onset of reductions in LVOT-G ([2]; Cohorts 1 and 2): within two weeks of initiating treatment
- mean reduction in EF per mg of aficamten ([2]; Cohorts 1 and 2, dose vs EF over time): −0.6 % per mg
- change in e′ [2, 5]: 0.5 cm/s
- change in lateral E/e′ [2, 5]: −2.0 (±1.1)
- LVMI mean difference, aficamten vs placebo ([2]; week 10): 8.1 g/m^2
